Values of other authors as cited in patent publication US20120082623A1, “SHH Regulation and Methods Thereof” (priority 2009, published 2012).

System: SVZ derived EGFR+ cells
Conditions: neurospheres, dose dependent manner; cited from earlier work

## NCCc1ccc(O)c(O)c1 [dopamine]
  proliferation of SVZ derived EGFR+ cells: increased the proliferation of SVZ derived EGFR+ cells
